{"source": "patent US7307101B2", "about": "“Use of 20-HETE synthesizing enzyme inhibitors as therapy for cerebral vascular disease” (MCW Research Foundation, Inc., priority 2000, dated 2007)", "key": {"rats with MCA occlusion": {"system": "rats with MCA occlusion", "test": "Infarct volume after transient MCA occlusion", "assay_type": "in vivo, rat", "conditions": "24 h", "procedure": "Adult male Wistar rats (200-250 g) were anesthetized with 2% halothane in O2 gas. The right external carotid artery (ECA) was carefully dissected. A silicon-coated suture (18 mm-long) was inserted from the lumen of the ECA to the right internal carotid artery (ICA) to occlude the origin of the right middle cerebral artery (MCA). Body temperature was maintained at 37° C. with a heating pad. […] One hour after MCA occlusion, the thread was removed to allow reperfusion of the ischemic area.\nTo measure infarct volume, rats were killed after 24 hours of reperfusion following transient occlusion of the MCA. Brains were flushed transcardially with physiological saline, removed from the skull, and cut into 2-mm coronal sections. The slices were immersed in 2% triphenyltetrazolium chloride (TTC) solution at 37° C. for 30 minutes.\nAll values were presented as mean±SEM. For statistical analysis, Dunnett's multiple-range test was used."}, "PGH1 synthase": {"biological_target": "T1, PGH1 synthase (Ovis aries, UniProt P05979)", "T1 construct": "the purified enzyme from ram seminal vesicles PGH1 synthase; purchased Cayman Chemical Co., Ann Arbor, Mich; host or cells: ram seminal vesicles (tissue-purified)", "T1 sequence (P05979 25-600)": "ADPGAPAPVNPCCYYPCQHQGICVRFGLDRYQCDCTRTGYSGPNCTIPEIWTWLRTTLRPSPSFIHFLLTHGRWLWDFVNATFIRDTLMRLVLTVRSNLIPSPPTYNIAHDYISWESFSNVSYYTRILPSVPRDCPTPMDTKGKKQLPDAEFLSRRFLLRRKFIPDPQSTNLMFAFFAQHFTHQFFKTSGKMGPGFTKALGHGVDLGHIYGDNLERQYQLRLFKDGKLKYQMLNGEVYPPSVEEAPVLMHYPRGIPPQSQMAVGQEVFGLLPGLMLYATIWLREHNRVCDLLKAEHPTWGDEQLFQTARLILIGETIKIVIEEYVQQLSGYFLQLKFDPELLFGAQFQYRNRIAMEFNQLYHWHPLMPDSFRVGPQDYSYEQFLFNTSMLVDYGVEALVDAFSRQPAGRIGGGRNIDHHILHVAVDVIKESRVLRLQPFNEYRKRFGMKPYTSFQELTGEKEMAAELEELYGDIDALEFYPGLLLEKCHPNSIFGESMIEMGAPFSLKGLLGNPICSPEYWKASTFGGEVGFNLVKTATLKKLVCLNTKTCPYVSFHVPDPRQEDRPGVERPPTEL", "test": "COX activity (conversion of AA to PGE2)", "assay_type": "biochemical, ram", "conditions": "10^−6 M", "procedure": "Reaction mixtures were incubated at 37° C. for 2 min before the addition of AA and for 2 min thereafter. All samples were run in duplicate. Amounts of PGE2 were determined by EIA after 100-400 times dilution with Tris buffer."}, "rats with SAH [1]": {"system": "rats with SAH", "test": "Effect on rCBF after SAH, drug given before SAH", "assay_type": "in vivo, rat", "conditions": "rats pretreated before SAH, 17-ODYA 1.5 nmol intrathecally", "procedure": "(§1) Animals. Experiments were performed on male Sprague-Dawley rats (9-12 weeks old), purchased from Harlan Sprague-Dawley, Inc. (Indianapolis, Ind.). The rats were housed in an Animal Care Facility at the Medical College of Wisconsin, which is approved by the American Association for the Accreditation of Laboratory Animal Care. All protocols involving animals received approval by the Animal Care Committee of the Medical College of Wisconsin.\nSurgical preparation. Rats were anesthetized with ketamine (Ketaject® 20 mg/kg i.m.) and thiobutabarbital sodium (Inactin® 50 mg/kg i.p.). A cannula was placed in the trachea and the rats were artificially ventilated using a small animal ventilator (SAR-830, CWE, Inc., Ardmore, Pa.) with a mixture of 30% O2 in N2. The femoral vein was cannulated for the infusion of drug and the rats received an i.v. infusion of 0.9% NaCl solution at a rate of […] to replace fluid losses. The femoral artery was cannulated for measurement of mean arterial pressure (MAP) and arterial blood gases. Endtidal partial pressure of carbon dioxide (pCO2) was controlled at 38 mmHg by adjusting the minute ventilation according to the reading of an CO2 analyzer (Capstar-100 IITC, Inc., Woodland Hills, Calif.). Blood samples were collected at the beginning and end of the experiment and analyzed using a blood gas analyzer (ABL 300, Radiometer, Copenhagen, Denmark) to validate the endtidal pCO2 readings. Anesthesia was maintained by administering additional amounts of thiobutabarbital (8 mg/kg i.v.) as needed. Rectal body temperature was maintained at 37±1° C.\nInduction of SAH and measurement of cerebral blood flow. SAH was induced by injection of 0.3 ml autologous arterial blood into the Cisterna Magna using a modification of a posterior cranio-cervical approach of a model of SAH. Delgado T J et al., Stroke 16: 595-602 (1985); Solomon R A et al., Stroke 16: 58-64 (1985). The head of the rat was placed in a stereotactic head holder and the atlanto-occipital membrane was exposed by bluntly separating the overlying neck muscles in the midline. The occipital bone and the atlas were visualized. A 30 gauge needle attached to PE-10 was inserted using a stereomicroscope into the Cistema Magna by penetrating the atlanto-occipital membrane. Then, 0.3 ml of freshly drawn unheparinized arterial blood was injected into the Cistema Magna at a rate of 35 μl/min using a syringe pump. This created a massive SAH that was confirmed in all rats at autopsy. Blood was found overlying the cerebello-medullary junction posteriorly and around the basal artery and the vessels of the Circle of Willis.\n(§2) Cerebral blood flow (CBF) was continuously measured using laser Doppler flowmetry through a thinned cranial window. […] A PF 103 laser Doppler flow (LDF) probe was positioned over the cranial window and CBF was monitored using a PF-3 laser Doppler flowmeter (Perimed, Stockholm, Sweden).\nOther animals received 17-ODYA (1.5 nmol) or vehicle in a volume of 50 μl that was injected directly into the Cistema Magna using a micromanipulator and a 30 gauge needle. The CBF recorded over the last 5 minutes of the control period immediately before initiation of SAH served as the control value. […] CBF was recorded for 2 min intervals at 10, 20, 30, 60, 90 and 120 minutes after completion of the injection of the blood. The CBF data are expressed as percentage change from control."}, "rats with SAH [2]": {"system": "rats with SAH", "test": "Effect on rCBF when given after SAH has been established", "assay_type": "in vivo, rat", "conditions": "1 mg/kg i.v. 30 min after induction of SAH", "procedure": "as §1\nSurgical preparation. Rats were anesthetized with ketamine (Ketaject® 20 mg/kg i.m.) and thiobutabarbital sodium (Inactin® 50 mg/kg i.p.). […] Endtidal partial pressure of carbon dioxide (pCO2) was controlled at 38 mmHg by adjusting the minute ventilation according to the reading of an CO2 analyzer (Capstar-100 IITC, Inc., Woodland Hills, Calif.). Blood samples were collected at the beginning and end of the experiment and analyzed using a blood gas analyzer (ABL 300, Radiometer, Copenhagen, Denmark) to validate the endtidal pCO2 readings. […]\nas §2\n0.3 ml of blood was injected into the Cistema Magna of rats to induce SAH. […] The CBF data are expressed as percentage change from control."}}, "data": [{"smiles": "CCCCc1ccc(N=CNO)c(C)c1", "note": "[HET0016, N-hydroxy-N′-(4-butyl-2-methylphenyl)-formamidine]", "values": [{"measurement": "infarct volume", "setting": "rats with MCA occlusion; 0.1 mg/kg i.v. just after reperfusion, n=10", "result": "10.7±2.6", "unit": "%"}, {"measurement": "infarct volume", "setting": "rats with MCA occlusion; 1 mg/kg i.v. just after reperfusion, n=17", "result": "9.7±2.1", "unit": "%"}, {"measurement": "inhibition at 1 µM", "setting": "PGH1 synthase", "result": 20, "unit": "%"}, {"measurement": "reduction of the initial fall in rCBF at 10 min", "setting": "rats with SAH [1]; HET0016 10 mg/kg i.v. 30 min prior", "result": "about 40%"}, {"measurement": "time after induction of SAH within which rCBF recovered fully to values not different from control", "setting": "rats with SAH [1]; HET0016 10 mg/kg i.v.", "result": "≤ 60", "unit": "min"}, {"measurement": "time after treatment at which cerebral blood flow was back to the control value", "setting": "rats with SAH [2]", "result": 70, "unit": "min"}]}]}
